Structures are written as SMILES.

The values that follow come from patent US11230541B2, “Heterocyclic compound” (Takeda Pharmaceutical Company Limited, priority 2017, dated 2022).

The target of the test is T1, NMDA receptor composed of four subunits including 2 sets of heterodimers of NR1 and NR2B (Homo sapiens, UniProt Q13224).
T1 construct: host or cells: HEK293 (tetracycline-induced expression)
T1 sequence (Q13224 27-1484, other chains not shown): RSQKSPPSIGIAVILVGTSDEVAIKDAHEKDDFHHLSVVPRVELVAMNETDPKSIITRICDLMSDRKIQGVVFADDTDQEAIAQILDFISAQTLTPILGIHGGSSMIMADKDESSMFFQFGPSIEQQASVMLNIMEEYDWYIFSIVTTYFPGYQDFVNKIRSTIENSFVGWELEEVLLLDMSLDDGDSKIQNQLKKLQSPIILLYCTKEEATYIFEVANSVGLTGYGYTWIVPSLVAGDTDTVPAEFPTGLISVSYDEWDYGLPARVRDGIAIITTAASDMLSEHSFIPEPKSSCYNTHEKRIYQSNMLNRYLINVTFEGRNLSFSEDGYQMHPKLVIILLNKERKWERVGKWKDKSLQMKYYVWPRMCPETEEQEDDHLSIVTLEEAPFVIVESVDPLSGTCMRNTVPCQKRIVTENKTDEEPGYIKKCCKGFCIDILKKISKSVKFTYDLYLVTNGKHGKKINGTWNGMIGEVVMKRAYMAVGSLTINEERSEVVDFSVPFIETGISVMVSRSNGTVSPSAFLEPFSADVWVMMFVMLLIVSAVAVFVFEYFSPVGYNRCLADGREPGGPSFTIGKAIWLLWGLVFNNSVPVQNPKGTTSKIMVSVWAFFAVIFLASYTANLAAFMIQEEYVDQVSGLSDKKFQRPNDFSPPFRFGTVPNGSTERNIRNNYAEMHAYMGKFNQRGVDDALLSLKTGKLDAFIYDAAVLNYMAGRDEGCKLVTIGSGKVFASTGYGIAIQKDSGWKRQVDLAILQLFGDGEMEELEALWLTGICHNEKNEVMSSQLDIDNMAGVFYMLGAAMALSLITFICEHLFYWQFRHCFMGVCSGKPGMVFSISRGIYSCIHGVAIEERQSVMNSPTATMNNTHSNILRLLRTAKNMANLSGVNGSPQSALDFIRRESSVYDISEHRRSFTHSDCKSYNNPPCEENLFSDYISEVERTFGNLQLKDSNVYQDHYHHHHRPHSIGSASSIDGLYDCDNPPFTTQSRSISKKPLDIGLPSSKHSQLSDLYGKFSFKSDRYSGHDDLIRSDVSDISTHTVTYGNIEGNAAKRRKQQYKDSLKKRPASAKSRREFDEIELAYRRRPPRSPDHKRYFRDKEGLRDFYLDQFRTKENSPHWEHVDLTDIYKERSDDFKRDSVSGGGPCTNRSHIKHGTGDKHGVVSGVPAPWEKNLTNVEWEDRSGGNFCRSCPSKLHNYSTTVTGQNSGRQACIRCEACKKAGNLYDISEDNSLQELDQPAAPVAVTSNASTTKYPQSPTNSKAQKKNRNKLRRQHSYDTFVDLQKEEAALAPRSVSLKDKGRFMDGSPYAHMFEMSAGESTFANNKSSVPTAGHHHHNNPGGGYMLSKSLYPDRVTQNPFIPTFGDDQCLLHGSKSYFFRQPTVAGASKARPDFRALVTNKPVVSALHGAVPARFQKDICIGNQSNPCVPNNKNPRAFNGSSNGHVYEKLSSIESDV
Nature of the test: NR2B Ca2+ influx assay (FLIPR, Fluo-4) in HEK293 cells expressing human GRIN1 and GRIN2B. Format: cell-based. The settings on record: HEK293, 10 μM final compound concentration, glutamic acid/glycine-induced Ca2+ influx, read-out: inhibitory rate (10 μM compound concentration). From the text:
To confirm the “antagonistic action on an NMDA receptor containing the NR2B subunit” of the compound of the present invention, human embryonic kidney cell expressing the “NMDA receptor composed of four subunits including 2 sets of heterodimers of NR1 and NR2B”, specifically HEK293 cell expressing human glutamate ionotropic receptor NMDA type subunit 1 (GRIN1) and human glutamate ionotropic receptor NMDA type subunit 2B (GRIN2B), was used and the activation suppressive effect on the receptors was measured.
As an index of the NMDA receptor activation, intracellular calcium ion (Ca^2+) influx caused by the binding of glycine and glutamic acid with NR1 and NR2B, respectively, was used. HEK293 cells were purchased from ChanTest. The cells were cultured in a DMEM/F-12 (COSMO BIO, 10-092-CM) medium added with 10% FBS′(fetal bovine serum, AusGene), 100 units/mL penicillin, 100 μg/mL streptomycin, 500 μg/mL neomycin, 100 μg/mL Zeocin, 5 μg/mL Blasticidin at 37° C., 5% CO2. The cells were detached from flask with trypsin the day before the assay, suspended in a seeding medium (DMEM (Invitrogen, 31053) added with 10% FBS, 100 units/mL penicillin, 100 μg/mL streptomycin) at 8×10^5 cells/mL, seeded by 25 μL per well in a 384-well plate (Falcon, 356663) at 20000 cells/well, and cultured overnight in an incubator. On the day of the assay, tetracycline (Wako Pure Chemical Industries, Ltd., 209-16561) was diluted with the seeding medium at 2 μg/mL, added at […] to the plate seeded with the cells, and cultured for 2 hr in an incubator. Thereafter, the medium was removed, and the cells were washed with 50 μL/well assay buffer (137 mM NaCl, 4 mM KCl, 1.8 mM CaCl2, 10 mM HEPES (pH 7.2), 10 mM Glucose, 0.1% BSA). Then, a loading buffer (assay buffer added with 2.5 uM Fluo-4AM, 2 mM Amaranth, 1 mM Tartrazine) was added at 25 μL/well, and loading was performed in the incubator for 30 min, and at room temperature for 15 min. A solution (25 μL) of the Example compound diluted with the above-mentioned assay buffer at 30 μM (final concentration 10 μM) was added, and the cells were stood for 15 min at room temperature. Using FLIPR (Molecular Devices), 25 μL of an assay buffer containing 30 μM glutamic acid, 30 μM glycine was added, and the fluorescence signal was measured every 3 seconds for 5 min. The inhibitory activity was calculated as a relative activity value (inhibitory rate) that inhibits 100% of the cumulative value of the fluorescence value of a well added with a buffer free of glutamic acid, glycine, relative to the cumulative value of the fluorescence value of each well.
As for `Cc1ccc(C(=O)NCc2c(C3CC3)ccc3[nH]ncc23)cc1F` [Example 93, N-((5-cyclopropyl-1H-indazol-4-yl)methyl)-3-fluoro-4-methyl-benzamide], the inhibition at 10 µM is 94%.
`COc1ccc(C(=O)NCc2c(C3CC3)ccc3[nH]ncc23)cc1` [Example 101, N-((5-cyclopropyl-1H-indazol-4-yl)methyl)-methoxybenzamide]: the inhibition at 10 µM was found to be 92%.
With `O=C(NCc1c(C2CC2)ccc2[nH]nnc12)c1ccc(OC(F)(F)F)cc1` [Example 203, N-((5-cyclopropyl-1H-benzotriazol-4-yl)methyl)-4-(trifluoromethoxy)-benzamide] the figure was 93%.
As for `Cc1ccc2ncn(C)c2c1CNC(=O)c1ccc(OC(F)F)c(Cl)c1` [Example 31, 3-chloro-4-(difluoromethoxy)-N-((1,6-dimethyl-1H-benzimidazol-7-yl)methyl)benzamide], the figure is 91%; as for `COc1ccc2ncn(C)c2c1CNC(=O)c1cc(F)c(C(F)(F)F)c(F)c1` [Example 24, 3,5-difluoro-N-((6-methoxy-1-methyl-1H-benzimidazol-7-yl)-methyl)-4-(trifluoro-methyl)benzaraide], 90%.
With `O=C(NCc1cccc2[nH]ncc12)c1ccc(Cl)c(F)c1` [Example 187, 4-chloro-3-fluoro-N-(1H-indazol-4-ylmethyl)benzamide], the inhibition at 10 µM stood at 74%.
With `COc1ccc2ncn(C)c2c1CNC(=O)Nc1cccc(F)c1` [Example 216, 1-(3-fluorophenyl)-3-((6-methoxy-l-methyl-1H-benzimidazol-7-yl)methyl)urea] the figure was 78%; with `COc1ccc2ncn(C)c2c1CNC(=O)c1cc(F)c(C)c(F)c1` [Example 9, 3,5-difluoro-N-((6-methoxy-1-methyl-1H-benzimidazol-7-yl)methyl)-4-methylbenzamide], 92%; with `COc1ccc2nc(C)n(C)c2c1CNC(=O)c1ccc(OC(F)(F)F)cc1` [Example 252, N-((6-methoxy-l,2-dimethyl-1H-benzimidazol-7-yl)methyl)-4-(trifluoromethoxy)-benzamide], 88%.
With `O=C(NCc1c(C2CC2)ccc2[nH]nnc12)c1ccc(OC(F)F)c(F)c1` [Example 212, N-((5-cyclopropyl-1H-benzotriazol-4-yl)methyl)-4-(difluoromethoxy)-3-fluorobenzamide] the figure was 93%.
Turning to `COc1ccc2ncn(C)c2c1CNC(=O)Nc1ccc(OC(F)(F)F)cc1` [Example 223, 1-((6-methoxy-1-methyl-1H-benzimidazol-7-yl)methyl)-3-(4-(trifluoromethoxy)-phenyl)urea], the inhibition at 10 µM stood at 83%.
With `COc1ccc2nc(C)n(C)c2c1CNC(=O)c1ccc(Cl)s1` [Example 229, 5-chloro-N-((6-methoxy-1,2-dimethyl-1H-benzimidazol-7-yl)methyl)thiophene-2-carboxamide], the inhibition at 10 µM was found to be 62%.
Consider `COc1ccc2ncn(C)c2c1CNC(=O)c1ccc(OC(F)F)nc1` [Example 276, 6-(difluoromethoxy)-N-[(6-methoxy-l-methyl-1H-benzimidazol-7-yl)methyl]pyridine-3-carboxamide], for which the inhibition at 10 µM was determined as 88%.
In the case of `COc1ccc2ncn(C)c2c1CNC(=O)Nc1ccc(C(F)(F)F)cc1F` [Example 260, 1-(2-fluoro-4-(trifluoromethyl)-phenyl)-3-((6-methoxy-1-methyl-1H-benzimidazol-7-yl)methyl)urea], the inhibition at 10 µM amounted to 92%.
As for `O=C(NCc1cccc2[nH]ncc12)c1ccc(C(F)(F)F)s1` [Example 167, N-(1H-indazol-4-ylmethyl)-5-(trifluoromethyl)-thiophene-2-carboxamide], the figure is 58%; as for `COc1ccc2ncn(C)c2c1CNC(=O)c1ccc(C(F)F)c(F)c1` [Example 124, 4-(difluoromethyl)-3-fluoro-N-((6-methoxy-1-methyl-1H-benzimidazol-7-yl)methyl)benzamide], 90%.
With `O=C(NCc1cccc2[nH]ncc12)c1ccc(OC(F)(F)F)cc1` [Example 7, N-(1H-indazol-4-ylmethyl)-4-(trifluoromethoxy)benzamide] the figure was 93%; with `CCc1ccc2[nH]nnc2c1CNC(=O)c1cc(F)c(C(F)(F)F)c(F)c1` [Example 205, N-((5-ethyl-1H-benzotriazol-4-yl)methyl)-3,5-difluoro-4-(trifluoromethyl)-benzamide], 87%.
As for `COc1ncc(C(=O)NCc2c(C)ccc3[nH]nnc23)cc1F` [Example 193, 5-fluoro-6-methoxy-N-((5-methyl-1H-benzotriazol-4-yl)methyl)nicotinamide], the figure is 86%; as for `COc1ccc2nc(C)n(C)c2c1CNC(=O)c1cc(F)c(C)c(F)c1` [Example 239, 3,5-difluoro-N-((6-methoxy-1,2-dimethyl-1H-benzimidazol-7-yl)methyl)-4-methylbenzamide], 60%; as for `COc1ccc2nc(C)n(C)c2c1CNC(=O)c1ccc(C)c(F)c1` [Example 238, 3-fluoro-N-((6-methoxy-1,2-dimethyl-1H-benzimidazol-7-yl)methyl)-4-methylbenzamide], 61%.
Take `Cc1cc(C(=O)NCc2c(C3CC3)ccc3[nH]ncc23)ccc1F` [Example 75, N-((5-cyclopropyl-1H-indazol-4-yl)methyl)-4-fluoro-3-methyl-benzamide]: the inhibition at 10 µM was determined as 92%.
As for `CCc1ccc2ncn(C)c2c1CNC(=O)c1ccc(OC(F)F)cc1` [Example 148, 4-(difluoromethoxy)-N-((6-ethyl-1-methyl-1H-benzimidazol-7-yl)methyl)benzamide], the figure is 91%; as for `COc1ccc2ncn(C)c2c1CNC(=O)c1ccc(C(F)(F)F)c(Cl)c1` [Example 51, 3-chloro-N-((6-methoxy-1-methyl-1H-benzimidazol-7-yl)-methyl)-4-(trifluoro-methyl)benzamide], 90%.
As to `O=C(NCc1c(C2CC2)ccc2[nH]ncc12)c1ccc(OC(F)(F)F)nc1` [Example 106, N-((5-cyclopropyl-1H-indazol-4-yl)-methyl)-6-(trifluoro-methoxy)nicotinamide], the inhibition at 10 µM stood at 93%.
`COc1ccc2ncn(C)c2c1CNC(=O)c1cc(F)c(Cl)c(F)c1` [Example 15, 4-chloro-3,5-difluoro-N-((6-methoxy-1-methyl-1H-benzimidazol-7-yl)methyl)benzamide]: the inhibition at 10 µM amounted to 95%.
`COc1ccc(C(=O)NCc2c(C)ccc3[nH]nnc23)cc1` [Example 264, 4-methoxy-N-((5-methyl-1H-benzotriazol-4-yl)methyl)benzamide]: the inhibition at 10 µM turned out to be 83%.
As for `CCc1ccc2ncn(C)c2c1CNC(=O)c1cc(F)c(OC)c(F)c1` [Example 23, N-((6-ethyl-1-methyl-1H-benzimidazol-7-yl)-methyl)-3,5-difluoro-4-methoxybenzamide], the figure is 93%.
With `O=C(NCc1c(C2CC2)ccc2[nH]ncc12)c1ccc(OC(F)F)c(Cl)c1` [Example 107, 3-chloro-N-((5-cyclopropyl-1H-indazol-yl)methyl)-4-(difluoromethoxy)-benzamide], the inhibition at 10 µM stood at 93%.
With `COc1c(F)cc(C(=O)NCc2c(F)ccc3ncn(C)c23)cc1F` [Example 210, 3,5-difluoro-N-((6-fluoro-1-methyl-1H-benzimidazol-7-yl)methyl)-4-methoxybenzamide] the figure was 90%; with `COc1ccc2ncn(C)c2c1CNC(=O)Nc1ccc(F)c(C)c1` [Example 217, 1-(4-fluoro-3-methylphenyl)-3-((6-methoxy-1-methyl-1H-benzimidazol-7-yl)methyl)urea], 82%; with `CCc1ccc2[nH]nnc2c1CNC(=O)c1cc(F)c(OC)c(F)c1` [Example 206, N-((5-ethyl-1H-benzotriazol-4-yl)methyl)-3,5-difluoro-4-methoxybenzamide], 95%.
With `CCOc1ncc(C(=O)NCc2cccc3[nH]ncc23)cc1F` [Example 171, 6-ethoxy-5-fluoro-N-(1H-indazol-4-ylmethyl)nicotinamide] the figure was 85%.
